# Measurements published in patent US20230181905A1, “Systems, Devices, and Methods for Enhancing the Neuroprotective Effects of Non-Invasive Gamma Stimulation with Pharmacological Agents” (Massachusetts Institute of Technology, priority 2021, published 2023).
# Tested on: amyloid
# Assay: Amyloid immunohistochemistry in APP.PS1 mice
# Format: in vivo, mouse
# Settings: 11-month-old APP.PS1 mice
# Description: 11-month-old APP.PS1 mice were either a) untreated as control, b) treated with GENUS alone (40 Hz light flicker delivered for 1 hour/day for 30 days), or c) a combination of GENUS (40 Hz delivered for 1 hour/day for 30 days) and levetiracetam (10 mg/kg body weight, intraperitoneal injection daily for 30 days), an agent shown to offer benefits in AD model mice. After the treatment mice were transcardially perfused with ice cold phosphate buffered saline (PBS) followed by 4% paraformaldehyde in PBS. Forty micron brain slices were prepared, and immunohistochemistry was then performed to evaluate the amyloid levels.
smiles,measurement,setting,value
CC[C@@H](C(N)=O)N1CCCC1=O [levetiracetam],amyloid levels in the visual cortex relative to treatment with GENUS alone,levetiracetam 10 mg/kg i.p. daily 30 days co-administered with GENUS,higher
same,effect of GENUS on amyloid levels,levetiracetam 10 mg/kg i.p. daily 30 days co-administered with GENUS 1 hour/day,dampened or attenuated
